Test results as given in US9062041B2 (Bayer Intellectual Property GmbH, priority 2011, dated 2015).

Assays:
Assay type in all cases: cell-based
[1] = biological target: EP2 subtype of the human PGE2 receptor (Homo sapiens, UniProt P43116); assay: cAMP antagonism test on the human EP2 receptor (HTRF cAMP detection); settings: hEP2 receptor, read-out: Antagonism hEP2 IC50
Procedure, shortened: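 Read-out is a competitive HTRF for cAMP: lysate cAMP displaces cAMP-d2 from Eu cryptate-labelled antibody, and antagonism raises the 665/620 nm ratio. Compound (0.8 nM–16.5 μM) added to EP2 cells 20 min at RT before 60 min PGE2 challenge (3× stock 1.5 nM) with IBMX, followed by 20 min lysis.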

[2] = biological target: EP4 subtype of the human PGE2 receptor (Homo sapiens, UniProt P35408); assay: cAMP antagonism test on the human EP4 receptor (HTRF cAMP detection); settings: selectivity towards hEP4, IC50 measured by cAMP antagonism test
Sequence of EP4 subtype of the human PGE2 receptor (P35408 whole entry): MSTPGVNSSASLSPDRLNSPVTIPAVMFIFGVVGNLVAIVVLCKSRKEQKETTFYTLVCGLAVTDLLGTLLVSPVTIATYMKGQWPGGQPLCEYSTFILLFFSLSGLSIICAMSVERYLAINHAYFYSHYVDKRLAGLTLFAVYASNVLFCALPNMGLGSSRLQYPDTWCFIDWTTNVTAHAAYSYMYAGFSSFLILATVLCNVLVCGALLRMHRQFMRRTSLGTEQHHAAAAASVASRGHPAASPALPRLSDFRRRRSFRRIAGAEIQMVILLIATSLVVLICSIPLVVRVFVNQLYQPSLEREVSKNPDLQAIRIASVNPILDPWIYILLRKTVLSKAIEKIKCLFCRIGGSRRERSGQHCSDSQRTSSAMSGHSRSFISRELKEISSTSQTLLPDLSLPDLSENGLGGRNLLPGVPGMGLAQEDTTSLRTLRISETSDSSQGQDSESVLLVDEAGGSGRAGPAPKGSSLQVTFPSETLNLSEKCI
Procedure, shortened: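 Competitive HTRF cAMP read-out (cAMP-d2 vs Eu-cryptate anti-cAMP antibody, 665/620 nm ratio) on lysed human EP4 cells. Compound (0.8 nM–16.5 μM) applied 20 min at RT before 60 min PGE2 challenge (3× solution 0.3 nM, IBMX present); 20 min lysis precedes reading.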

human PGD receptor = biological target: T1, human PGD receptor (Homo sapiens, UniProt Q13258); assay: cAMP antagonism test on the human prostaglandin D receptor (HTRF cAMP detection); settings: selectivity towards hDP, IC50 measured by cAMP antagonism test
T1 sequence (Q13258 1-359): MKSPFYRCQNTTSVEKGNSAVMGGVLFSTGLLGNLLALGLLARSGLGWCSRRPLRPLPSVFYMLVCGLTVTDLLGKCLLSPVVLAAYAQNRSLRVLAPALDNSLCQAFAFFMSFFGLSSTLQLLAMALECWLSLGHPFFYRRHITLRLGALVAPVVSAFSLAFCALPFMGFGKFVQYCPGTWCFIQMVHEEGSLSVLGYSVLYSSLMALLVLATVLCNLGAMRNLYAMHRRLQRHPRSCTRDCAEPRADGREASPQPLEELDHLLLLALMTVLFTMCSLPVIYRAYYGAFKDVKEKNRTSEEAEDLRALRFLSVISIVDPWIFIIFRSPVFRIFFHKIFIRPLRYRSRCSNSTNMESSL
Procedure, shortened: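 HTRF competition read-out (665/620 nm ratio ×10000), where higher FRET means less cAMP, i.e. antagonism. Compounds (0.8 nM–16.5 μM) were preincubated 20 min at RT with cells and cAMP-d2, PGD2 (3× solution, 6 nM) in IBMX-containing PBS added for 30 min at RT, then cells lysed 20 min.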

Sequence of EP2 subtype of the human PGE2 receptor (P43116 whole entry): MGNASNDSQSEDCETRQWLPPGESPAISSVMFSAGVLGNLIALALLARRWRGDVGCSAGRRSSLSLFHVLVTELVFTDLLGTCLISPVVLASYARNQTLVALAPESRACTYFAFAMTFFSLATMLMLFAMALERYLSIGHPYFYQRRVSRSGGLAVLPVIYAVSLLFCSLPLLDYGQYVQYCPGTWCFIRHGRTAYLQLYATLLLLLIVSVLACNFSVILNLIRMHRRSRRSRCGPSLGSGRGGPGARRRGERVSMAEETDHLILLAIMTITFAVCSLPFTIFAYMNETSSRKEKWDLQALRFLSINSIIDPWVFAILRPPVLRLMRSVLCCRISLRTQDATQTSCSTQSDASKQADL

IC50 [1]	Selectivity hEP2/hEP4 [2]	Selectivity hEP2/hDP (human PGD receptor)	SMILES
33.3 nM	xxx (xxx > 100)	xxx (xxx > 100)	Cc1c(C(=O)NCCOC(F)(F)F)ccc2nn(CC3CN(C(=O)c4ccc(Cl)cc4)C3)cc12 [Example 152, 2-{[1-(4-chlorobenzoyl)azetidin-3-yl]methyl}-4-methyl-N-[2-(trifluoromethoxy)ethyl]-2H-indazol-5-carboxamide]
147 nM	xxx (xxx > 100)	xxx (xxx > 100)	Cc1c(C(=O)NCCSC(F)(F)F)ccc2nn(C[C@@H]3CCN(C(=O)c4ccc(Cl)cc4)C3)cc12 [Example 220, 2-{[(R)-1-(4-chlorobenzoyl)pyrrolidin-3-yl]methyl}-4-methyl-N-{2-[(trifluoromethyl)sulphanyl]ethyl}-2H-indazol-5-carboxamide]
22.9 nM	xxx (xxx > 100)	xxx (xxx > 100)	COCCNC(=O)c1ccc2nn(CC3CCN(C(=O)c4ccc(S(F)(F)(F)(F)F)cc4)CC3)cc2c1OC [Example 268, 4-methoxy-N-(2-methoxyethyl)-2-({1-[4-(pentafluoro-λ^6-sulphanyl)benzoyl]-piperidin-4-yl}methyl)-2H-indazol-5-carboxamide]
24.9 nM	xxx (xxx > 100)	xxx (xxx > 100)	Cc1cc2nn(CC3CN(C(=O)c4ccc(Oc5ccc(C(F)(F)F)cc5)cc4)C3)cc2cc1C(=O)NCC(F)(F)F [Example 201, 6-methyl-N-(2,2,2-trifluoroethyl)-2-[(1-{4-[4-(trifluoromethyl)phenoxy]benzoyl}azetidin-3-yl)methyl]-2H-indazol-5-carboxamide]
20.1 nM	xxx (xxx > 100)	xxx (xxx > 100)	COCCNC(=O)c1ccc2nn(CC3CN(C(=O)c4cn(C)c5ccccc45)C3)cc2c1C [Example 282, N-(2-methoxyethyl)-4-methyl-2-({1-[(1-methyl-1H-indol-3-yl)carbonyl]azetidin-3-yl}methyl)-2H-indazol-5-carboxamide]
12.8 nM	xxx (xxx > 100)	xxx (xxx > 100)	Cc1c(C(=O)NCCOCC(F)(F)F)ccc2nn(CC3CCN(C(=O)c4ccc(-c5ccc(F)cc5)cc4)CC3)cc12 [Example 94, 2-({1-[(4′-fluoro-biphenyl-4-yl)-carbonyl]piperidin-4-yl}methyl)-4-methyl-N-[2-(2,2,2-trifluoroethoxy)-ethyl]-2H-indazol-5-carboxamide]
14.3 nM	xxx (xxx > 100)	xxx (xxx > 100)	COCCNC(=O)c1ccc2nn(CC3CCN(C(=O)c4ccc(Cl)cc4)CC3)cc2c1OC(F)F [Example 225, 2-{[1-(4-chlorobenzoyl)piperidin-4-yl]methyl}-4-(difluoromethoxy)-N-(2-methoxyethyl)-2H-indazol-5-carboxamide]
40.9 nM	xxx (xxx > 100)	xxx (xxx > 100)	COCCNC(=O)c1ccc2nn(C[C@H]3CCN(C(=O)c4ccc(Cl)cc4)C3)cc2c1C [Example 222, 2-{[(S)-1-(4-chlorobenzoyl)pyrrolidin-3-yl]methyl}-N-(2-methoxyethyl)-4-methyl-2H-indazol-5-carboxamide]
321 nM	xx (xx: 10-100)	xx (xx: 10-100)	Cc1c(C(=O)NCC(F)(F)F)ccc2nn(CC3CCN(C(=O)c4ccc(-c5ccc(F)cn5)cc4)CC3)cc12 [Example 325, 2-({1-[4-(5-fluoropyridin-2-yl)benzoyl]piperidin-4-yl}methyl)-4-methyl-N-(2,2,2-trifluoroethyl)-2H-indazol-5-carboxamide]
15.4 nM	xxx (xxx > 100)	xxx (xxx > 100)	Cc1c(C(=O)NCCOCC2CC2)ccc2nn(CC3CCN(C(=O)c4ccc(Oc5ccc(F)cc5)cc4)CC3)cc12 [Example 86, N-[2-(cyclopropyl-methoxy)ethyl]-2-({1-[4-(4-fluorophenoxy)-benzoyl]piperidin-4-yl}methyl)-4-methyl-2H-indazol-5-carboxamide]
6.59 nM	xxx (xxx > 100)	xxx (xxx > 100)	Cc1c(C(=O)NCCOC2CC2)ccc2nn(CC3CN(C(=O)c4ccc(OC(F)(F)F)cc4)C3)cc12 [Example 136, N-[2-(cyclopropyloxy)ethyl]-4-methyl-2-({1-[4-(trifluoromethoxy)benzoyl]azetidin-3-yl}methyl)-2H-indazol-5-carboxamide]
8.19 nM	xxx (xxx > 100)	xxx (xxx > 100)	Cc1c(C(=O)NCC2CC2)ccc2nn(CC3CCN(C(=O)c4ccc(Oc5ccc(C(F)(F)F)cc5)cc4)CC3)cc12 [Example 406, N-(cyclopropylmethyl)-4-methyl-2-[(1-{4-[4-(trifluoromethyl)phenoxy]-benzoyl}piperidin-4-yl)methyl]-2H-indazol-5-carboxamide]
30.7 nM	xxx (xxx > 100)	xxx (xxx > 100)	Cc1cc2nn(CC3CN(C(=O)c4ccc(S(F)(F)(F)(F)F)cc4)C3)cc2cc1C(=O)NCCN1CCOCC1 [Example 280, 6-methyl-N-(2-morpholinoethyl)-2-({1-[4-(pentafluoro-λ^6-sulphanyl)benzoyl]-azetidin-3-yl}methyl)-2H-indazol-5-carboxamide]
12.8 nM	xxx (xxx > 100)	xxx (xxx > 100)	Cc1c(C(=O)NCCOCC2CC2)ccc2nn(CC3CN(C(=O)c4ccc(Oc5ccc(F)cc5)cc4)C3)cc12 [Example 150, N-[2-(cyclopropylmethoxy)ethyl]-2-({1-[4-(4-fluorophenoxy)benzoyl]azetidin-3-yl}methyl)-4-methyl-2H-indazol-5-carboxamide]
4130 nM	x (x: 1-10)	x (x: 1-10)	Cc1c(C(=O)NCCN2CCOCC2)ccc2nn(CC3CCN(C(=O)c4cccc(S(F)(F)(F)(F)F)c4)CC3)cc12 [Example 64]
82.4 nM	xxx (xxx > 100)	xxx (xxx > 100)	CCc1c(C(=O)NCCOC)ccc2nn(CC3CCN(C(=O)c4ccc(OC(F)(F)F)cc4)CC3)cc12 [Example 213, 4-Ethyl-N-(2-methoxyethyl)-2-({1-[4-(trifluoromethoxy)benzoyl]piperidin-4-yl}methyl)-2H-indazol-5-carboxamide]
19.3 nM	xxx (xxx > 100)	xxx (xxx > 100)	COCCNC(=O)c1ccc2nn(CC3CCN(C(=O)c4cccc(C)c4)CC3)cc2c1C [Example 27, N-(2-methoxyethyl)-4-methyl-2-{[1-(3-methylbenzoyl)-piperidin-4-yl]-methyl}-2H-indazol-5-carboxamide]

SMILES	IC50 [1]	Selectivity hEP2/hEP4 [2]	Selectivity hEP2/hDP (human PGD receptor)
Cc1c(C(=O)NCCOC(C)(C)C)ccc2nn(CC3CCN(C(=O)c4ccc(-c5ccc(F)cc5)cc4)CC3)cc12 [Example 113, N-(2-tert-butoxyethyl)-2-({1-[(4′-fluoro-biphenyl-4-yl)-carbonyl]piperidin-4-yl}methyl)-4-methyl-2H-indazol-5-carboxamide]	13.9 nM	xxx (xxx > 100)	xxx (xxx > 100)
